Consider 28 compounds from patent US7649001B2.

Numbering of substitutions follows the chain as printed. Counter-ions that a name gives are not always drawn.

Data set [1] concerns the target T1, LNCaP type mutant androgen receptor (AR) (Homo sapiens, UniProt P10275, T878A).
T1 sequence (P10275 1-920 T878A): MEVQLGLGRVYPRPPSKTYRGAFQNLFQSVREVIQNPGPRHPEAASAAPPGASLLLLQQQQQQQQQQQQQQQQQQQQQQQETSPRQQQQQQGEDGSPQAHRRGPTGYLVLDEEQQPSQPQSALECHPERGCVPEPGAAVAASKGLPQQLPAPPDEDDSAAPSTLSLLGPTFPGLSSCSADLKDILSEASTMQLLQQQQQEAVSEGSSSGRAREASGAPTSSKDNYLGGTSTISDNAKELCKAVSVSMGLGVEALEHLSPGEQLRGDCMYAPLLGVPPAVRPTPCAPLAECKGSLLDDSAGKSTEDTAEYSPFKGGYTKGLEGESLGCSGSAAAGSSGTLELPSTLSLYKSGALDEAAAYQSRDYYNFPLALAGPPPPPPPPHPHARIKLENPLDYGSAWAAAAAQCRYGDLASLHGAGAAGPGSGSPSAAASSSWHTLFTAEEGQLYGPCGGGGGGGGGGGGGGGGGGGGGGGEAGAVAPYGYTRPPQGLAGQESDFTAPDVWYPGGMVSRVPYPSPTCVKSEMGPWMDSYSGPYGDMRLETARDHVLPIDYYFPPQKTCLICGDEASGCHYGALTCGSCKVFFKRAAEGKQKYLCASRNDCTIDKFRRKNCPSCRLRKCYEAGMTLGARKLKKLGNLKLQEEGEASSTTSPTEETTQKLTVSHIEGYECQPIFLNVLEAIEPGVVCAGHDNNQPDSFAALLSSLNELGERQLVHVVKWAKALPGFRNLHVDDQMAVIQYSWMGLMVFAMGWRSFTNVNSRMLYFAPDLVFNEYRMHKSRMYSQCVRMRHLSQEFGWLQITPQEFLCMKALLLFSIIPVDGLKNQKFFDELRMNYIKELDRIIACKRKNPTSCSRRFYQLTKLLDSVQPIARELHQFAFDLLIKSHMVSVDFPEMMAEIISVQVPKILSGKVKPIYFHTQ
Nature of the data set: AR-binding inhibition test (LNCaP type). The following applies: read-out: Inhibition rate (%) at 100 nM LNCaP type.

The test system of data set [2] is Human prostate cancer cell strain LNCaP-FGC. The data set is described as follows: cells. It is filed as cell-based. Conditions: 72 h, read-out: Promotion rate (%) on PSA production at 100 nM.
In data set [3] the target is T2, wild type androgen receptor (AR) (Homo sapiens, UniProt P10275).
T2 sequence (P10275 1-920): T1 sequence (P10275 1-920 T878A) with A878T
Nature of the data set: AR-binding inhibition test (wild type). Conditions: read-out: Inhibition rate (%) at 100 nM Wild type.

Turning to `CC1CCCN1c1ccc(C#N)c2sccc12` (centres unmarked) [Compound 76, 4-(2-methyl-1-pyrrolidinyl)-1-benzothiophene-7-carbonitrile], the inhibition at 0.1 µM in data set [1] amounted to 97%; in data set [3], 102%. In data set [2], the activation at 0.1 µM came out at 85%.
For `COC[C@H]1CCCN1c1ccc(C#N)c2ccccc12` [Compound 45, 4-[(2R)-2-(methoxymethyl)pyrrolidin-1-yl]-1-naphthonitrile hydrochloride], the values for the inhibition at 0.1 µM in data set [1] and in data set [3] were 110% and 105%, respectively.
Regarding `N#Cc1ccc(N2CCCC2)c2ccccc12` [Compound 1, 4-(1-pyrrolidinyl)-1-naphthonitrile], the inhibition at 0.1 µM amounted to 78% in data set [1] and 88% in data set [3].
Turning to `C[C@H]1[C@H](O)CCN1c1ccc(C#N)c2ccccc12` [Compound 113, 4-[(2S,3R)-3-hydroxy-2-methyl-1-pyrrolidinyl]-1-naphthonitrile], the inhibition at 0.1 µM is 98% in data set [1] and 97% in data set [3]. For the same compound, the activation at 0.1 µM in data set [2] worked out at 88%.
Turning to `CC1CCCN1c1ccc(C#N)c2ccccc12` (centres unmarked) [Compound 47, 4-(2-methylpyrrolidin-1-yl)-1-naphthonitrile hydrochloride], the inhibition at 0.1 µM in data set [1] and in data set [3] was 116% throughout. The activation at 0.1 µM in data set [2] is 88%.
As for `C[C@H]1[C@@H](O)CCN1c1ccc(C#N)c2sccc12` [Compound 118, 4-[(2S,3S)-3-hydroxy-2-methyl-1-pyrrolidinyl]-1-benzothiophene-7-carbonitrile], the inhibition at 0.1 µM was 95% in data set [1] and 96% in data set [3]. For the same compound, the activation at 0.1 µM in data set [2] was found to be 88%.
The matching figures for `CC1(CO)CCCN(c2ccc(C#N)c3ccccc23)C1` (centres unmarked) [Compound 56, 4-[3-(hydroxymethyl)-3-methyl-1-piperidinyl]-1-naphthonitrile]: 91%, 80% and 96%.
Regarding `C[C@H]1[C@@H](CO)CCN1c1ccc(C#N)c2ccccc12` [Compound 107, 4-[(2S,3S)-3-(hydroxymethyl)-2-methyl-1-pyrrolidinyl]-1-naphthonitrile], the figures for the inhibition at 0.1 µM in data set [1] and in data set [3] were 93% and 95%, respectively. Also, the activation at 0.1 µM in data set [2] was 95%.
Regarding `C[C@H]1CCCN1c1ccc(C#N)c2ccccc12` [Compound 85, 4-[(2S)-2-methyl-1-pyrrolidinyl]-1-naphthonitrile], the inhibition at 0.1 µM in data set [1] stood at 99%; in data set [3], 95%. Besides, the activation at 0.1 µM in data set [2] came to 92%.
Take `N#Cc1ccc(N2CCC(CO)C2)c2ccccc12` (centres unmarked) [Compound 50, 4-[3-(hydroxymethyl)pyrrolidin-1-yl]-1-naphthonitrile hydrochloride]: the inhibition at 0.1 µM was found to be 102% in data set [1] and 91% in data set [3]. Further, the activation at 0.1 µM in data set [2] was 88%.
Take `CC[C@@H]1CCCN1c1ccc(C#N)c2ccccc12` [Compound 84, 4-[(2R)-2-ethyl-1-pyrrolidinyl]-1-naphthonitrile]: the values for the inhibition at 0.1 µM in data set [1] and in data set [3] were 93% and 88%, respectively.
On to `N#Cc1ccc(N2CCCC(CO)C2)c2ccccc12` (centres unmarked) [Compound 19, 4-[3-(hydroxymethyl)-1-piperidinyl]-1-naphthonitrile], for which the figures for the inhibition at 0.1 µM in data set [1] and in data set [3] were 91% and 75%, respectively. Further, in data set [2], the activation at 0.1 µM was 70%.
For the compound `C=C[C@@H]1CCCN1c1ccc(C#N)c2ccccc12` [Compound 82, 4-[(2S)-2-vinyl-1-pyrrolidinyl]-1-naphthonitrile], the inhibition at 0.1 µM was determined as 94% in data set [1] and 85% in data set [3].
`CN1C(=O)CCN1c1ccc(C#N)c2ccccc12`: the melting point is 192 to 193 °C.
Regarding `C[C@H]1[C@@H](O)CCN1c1ccc(C#N)c2ccccc12` [Compound 116, 4-[(2S,3S)-3-hydroxy-2-methyl-1-pyrrolidinyl]-1-naphthonitrile], the inhibition at 0.1 µM in data set [1] stood at 94%; in data set [3] it was 99%. Besides, in data set [2], the activation at 0.1 µM was 84%.
In the case of `CC(C)[C@H]1CCCN1c1ccc(C#N)c2ccccc12` [Compound 144, 4-[(2R)-2-isopropyl-1-pyrrolidinyl]-1-naphthonitrile], the inhibition at 0.1 µM was determined as 102% in data set [1] and 103% in data set [3]. For the same compound, in data set [2], the activation at 0.1 µM was found to be 87%.
`N#Cc1ccc(N2CCC(CCO)C2)c2ccccc12` (centres unmarked) [Compound 141, 4-[3-(2-hydroxyethyl)-1-pyrrolidinyl]-1-naphthonitrile]: the inhibition at 0.1 µM in data set [1] amounted to 101%; in data set [3] it was 96%. Also, the activation at 0.1 µM in data set [2] turned out to be 87%.
The matching figures for `N#Cc1ccc(N2CCC(F)C2)c2ccccc12` (centres unmarked) [Compound 99, 4-(3-fluoro-1-pyrrolidinyl)-1-naphthonitrile]: 92%, 98% and 83%.
Turning to `CO[C@@H]1C[C@H](C)N(c2ccc(C#N)c3ccccc23)C1`, the melting point was in the range of 88 to 89 °C.
In turn, `C[C@H]1[C@@H](C#N)CCN1c1ccc(C#N)c2ccccc12` showed a melting point of 143 to 145 °C.
`COC[C@H]1CCCN1c1ccc(C#N)c2ccccc12` (as salt: hydrochloride) [Compound 45, 4-[(2R)-2-(methoxymethyl)pyrrolidin-1-yl]-1-naphthonitrile hydrochloride] returned a melting point of 88 to 89 °C.
Regarding `N#Cc1ccc(N2CCCCC2)c2ccccc12` [Compound 3, 4-(1-piperidinyl)-1-naphthonitrile], the inhibition at 0.1 µM in data set [1] and in data set [3] was 97% throughout. Besides, the activation at 0.1 µM in data set [2] turned out to be 90%.
Regarding `C[C@H]1[C@@H](C(N)=O)CCN1c1ccc(C#N)c2ccccc12`, the melting point lay in the range of 204 to 206 °C.
As for `N#Cc1ccc(N2CCCCCC2)c2ccccc12` [Compound 10, 4-(1-azepaneyl)-1-naphthonitrile], the results for the inhibition at 0.1 µM in data set [1] and in data set [3] were 144% and 112%, respectively. The activation at 0.1 µM in data set [2] came to 75%.
`CC[C@H]1CCCN1c1ccc(C#N)c2ccccc12` [Compound 83, 4-[(2S)-2-ethyl-1-pyrrolidinyl]-1-naphthonitrile]: the values for the inhibition at 0.1 µM in data set [1] and in data set [3] were 102% and 95%, respectively. Moreover, in data set [2], the activation at 0.1 µM was 95%.
`N#Cc1c(Br)cc(N2CCCCC2)c2ccccc12` yielded a melting point of 179 to 180 °C.
As to `C=C[C@H]1CCCN1c1ccc(C#N)c2ccccc12` [Compound 81, 4-[(2R)-2-vinyl-1-pyrrolidinyl]-1-naphthonitrile], the inhibition at 0.1 µM in data set [1] turned out to be 100%; in data set [3], 104%. In data set [2], the activation at 0.1 µM stood at 98%.
Regarding `CO[C@@H]1CCN(c2ccc(C#N)c3ccccc23)[C@H]1C` [Compound 139, 4-[(2S,3R)-3-methoxy-2-methyl-1-pyrrolidinyl]-1-naphthonitrile], the inhibition at 0.1 µM came to 99% in data set [1] and 95% in data set [3]. Moreover, the activation at 0.1 µM in data set [2] is 73%.

Broadly, the inhibition is the drop in the measured response relative to a control, in per cent. For orientation: melting point means the temperature, or range, at which the solid turns liquid.
